Source: patent US9796700B2 (Celgene CAR LLC, priority 2013, dated 2017)

How the values were obtained:
Erk1 = Erk1 (Homo sapiens (Human), UniProt P27361); test: Protein Mass Modification Assay (intact protein MALDI); format: binding
How it was run: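 Human Erk1 was incubated 60 min at room temperature with a 10-fold molar excess of compound, then analysed as intact protein by MALDI with sinapinic acid matrix. The centroid mass shift versus untreated protein was divided by compound molecular weight to give percent modified protein.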

MEK1 activated ERK1 = MEK1 activated ERK1 (Homo sapiens (Human), UniProt P27361); test: Omnia continuous-read kinase assay for potency against MEK1 activated ERK1; format: biochemical; details: MEK1 activated ERK1, WT, ATP at KM
MEK1 activated ERK1, sequence (P27361 whole entry): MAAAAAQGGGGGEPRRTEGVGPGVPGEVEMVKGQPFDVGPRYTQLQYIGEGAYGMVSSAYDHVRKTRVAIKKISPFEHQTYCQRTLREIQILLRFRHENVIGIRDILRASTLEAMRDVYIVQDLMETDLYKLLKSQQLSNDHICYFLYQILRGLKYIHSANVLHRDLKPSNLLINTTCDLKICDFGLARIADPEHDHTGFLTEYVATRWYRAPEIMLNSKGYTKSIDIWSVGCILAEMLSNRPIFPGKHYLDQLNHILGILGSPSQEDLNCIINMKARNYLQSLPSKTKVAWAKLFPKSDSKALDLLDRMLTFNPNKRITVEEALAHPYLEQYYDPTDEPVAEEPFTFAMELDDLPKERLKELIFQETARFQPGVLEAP
Description: Omnia Assay Protocol for Potency Assessment Against MEK1 Activated ERK1:
The protocol below describes continuous-read kinase assays to measure potency of compounds against activated ERK1 enzyme. The mechanics of the assay platform are best described by the vendor (Invitrogen, Carlsbad, Calif.) on their website at the following URL: invitrogen.com/site/us/en/home.html.
Briefly, a 1.25× stock of ERK1 enzyme (14-439-K) from Millipore (Billerica, Mass.), 5×ATP (AS001A) and ST17-Sox conjugated peptide substrate (KNZ1171C) were prepared in 1× kinase reaction buffer consisting of 20 mM Tris, pH 7.5, 5 mM MgCl2, 1 mM EGTA, 5 mM β-glycerophosphate, 5% glycerol (10× stock, KB002A) and 0.2 mM DTT. 10 μL of ATP/ST17-sox peptide substrate mix was combined with 0.5 μL volume of 100% DMSO and serially diluted compounds were prepared in 100% DMSO in a Corning (#3574) 384-well, white, non-binding surface microtiter plate (Corning, N.Y.). Kinase reactions were started with the addition of 40 μL of ERK1 solution and monitored every 71 seconds for 30-240 minutes at λex360/λem485 in a Synergy plate reader from BioTek (Winooski, Vt.). At the conclusion of each assay, progress curves from each well were examined for linear reaction kinetics and fit statistics (R^2, 95% confidence interval, absolute sum of squares). Initial velocity (0 minutes to ˜30+ minutes) from each reaction was determined from the slope of a plot of relative fluorescence units vs time (minutes or seconds) and then plotted against inhibitor concentration to estimate ^AppIC50 from log [Inhibitor] vs Response, Variable Slope model in GraphPad Prism from GraphPad Software (San Diego, Calif.).
[Reagent] used in optimized protocol:
[ERK1]=4 nM, [ATP]=50 μM, [ST17-Sox]=10 μM (ATP ^appKM 48 μM)
The results of this assay show the degree of inhibition of ERK activity, which is a direct measurement of inhibition of ERK activity. Results from this assay are reported in Table A under the column “ERK1 Omnia WT ATP KM IC50 (nM).”

Erk1, sequence (P27361 whole entry, looked up): as the sequence (P27361 whole entry) above

ERK1 Mass Mod (%) (Erk1)	IC50 (MEK1 activated ERK1)	Compound
G (proived a mass modification ≦30%)	> 1000 nM	C=CC(=O)Nc1cccc(Nc2nc(Nc3ccc(N4CCN(C(C)=O)CC4)cc3OC)ncc2Cl)c1 [Compound I-298, N-(3-((2-((4-(4-acetylpiperazin-1-yl)-2-methoxyphenyl)amino)-5-chloropyrimidin-4-yl)amino)phenyl)acrylamide]
–	< 100 nM	CCC(=O)Nc1ccccc1Nc1nc(N[C@H]2CCCN(C(=O)CO)C2)ncc1Cl [Compound I-311, (S)—N-(2-((5-chloro-2-((1-(2-hydroxyacetyl)piperidin-3-yl)amino)pyrimidin-4-yl)amino)phenyl)propionamide]

Continued, compound first:

Compound	ERK1 Mass Mod (%) (Erk1)	IC50 (MEK1 activated ERK1)
C=CC(=O)Nc1ccccc1Nc1nc(Nc2cc(C(=O)NOC)ccc2C)ncc1Cl [Compound I-191, 3-((4-((2-acrylamidophenyl)amino)-5-chloropyrimidin-2-yl)amino)-N-methoxy-4-methylbenzamide]	E (provided a mass modification of ≧70%)	< 100 nM
C=C(C)S(=O)(=O)Nc1cc(C)ccc1Nc1nc(NC2CCC(=O)CC2)ncc1C(F)(F)F [Compound I-53, N-(5-Methyl-2-((2-((4-oxocyclohexyl)amino)-5-(trifluoromethyl)pyrimidin-4-yl)amino)phenyl)prop-1-ene-2-sulfonamide]	G (proived a mass modification ≦30%)	< 100 nM
C=CC(=O)Nc1cc(OC)ccc1Nc1nc(Nc2cc(OC)nc(N3CCN(CC)CC3)c2)ncc1C(F)(F)F [Compound I-88, N-(2-((2-((2-(4-Ethylpiperazin-1-yl)-6-methoxypyridin-4-yl)amino)-5-(trifluoromethyl)pyrimidin-4-yl)amino)-5-methoxyphenyl)acrylamide]	E (provided a mass modification of ≧70%)	< 100 nM
C=CC(=O)Nc1ccccc1Nc1nc(Nc2ccc(N3CCC[C@@H]3CO)cc2C#N)ncc1Cl [Compound I-171, (R)—N-(2-((5-chloro-2-((2-cyano-4-(2-(hydroxymethyl)pyrrolidin-1-yl)phenyl)amino)pyrimidin-4-yl)amino)phenyl)acrylamide]	E (provided a mass modification of ≧70%)	> 1000 nM
C=CC(=O)N[C@H]1CCCC[C@H]1Nc1nc(Nc2cc(C(N)=O)ccc2C)ncc1Cl [Compound I-200, 3-((4-(((1R,2S)-2-acrylamidocyclohexyl)amino)-5-chloropyrimidin-2-yl)amino)-4-methylbenzamide]	G (proived a mass modification ≦30%)	> 1000 nM
C=CC(=O)Nc1ccc(C)cc1Nc1nc(N[C@H]2CCCN(C(=O)CO)C2)ncc1C(F)(F)F [Compound I-37, (S)—N-(2-((2-((1-(2-hydroxyacetyl)piperidin-3-yl)amino)-5-(trifluoromethyl)pyrimidin-4-yl)amino)-4-methylphenyl)acrylamide]	E (provided a mass modification of ≧70%)	< 100 nM
C=CC(=O)Nc1cc(Cl)ccc1Nc1nc(Nc2cc(Cl)nc(OC)c2)ncc1Cl [Compound I-247, N-(5-chloro-2-((5-chloro-2-((2-chloro-6-methoxypyridin-4-yl)amino)pyrimidin-4-yl)amino)phenyl)acrylamide]	F (provided a mass modification of 31-69%)	> 1000 nM
C=CC(=O)Nc1cc(OC)ccc1Oc1nc(Nc2ccc(N3CCC[C@H]3C(N)=O)cc2OC)ncc1C(N)=O [Compound I-265, (S)-4-(2-acrylamido-4-methoxyphenoxy)-2-((4-(2-carbamoylpyrrolidin-1-yl)-2-methoxyphenyl)amino)pyrimidine-5-carboxamide]	F (provided a mass modification of 31-69%)	> 1000 nM
C=CC(=O)Nc1cc(OC)ccc1Oc1nc(Nc2ccc(N3CCC[C@@H]3C(N)=O)cc2OC)ncc1C(N)=O [Compound I-262, (R)-4-(2-acrylamido-4-methoxyphenoxy)-2-((4-(2-carbamoylpyrrolidin-1-yl)-2-methoxyphenyl)amino)pyrimidine-5-carboxamide]	F (provided a mass modification of 31-69%)	> 1000 nM
C=CC(=O)Nc1ccccc1Oc1nc(Nc2ccc(N3CCN(C(C)=O)CC3)cc2OC)ncc1Cl [Compound I-259, N-(2-((2-((4-(4-acetylpiperazin-1-yl)-2-methoxyphenyl)amino)-5-chloropyrimidin-4-yl)oxy)phenyl)acrylamide]	F (provided a mass modification of 31-69%)	> 1000 nM
C=C(C)C(=O)Nc1ccccc1Nc1nc(Nc2cc(C(N)=O)ccc2C)ncc1Cl [Compound I-217, 3-((5-chloro-4-((2-methacrylamidophenyl)amino)pyrimidin-2-yl)amino)-4-methylbenzamide]	G (proived a mass modification ≦30%)	> 1000 nM
C=CC(=O)Nc1cc(C)ccc1Nc1nc(N[C@@H]2CCCN(S(=O)(=O)C=C)C2)ncc1C(F)(F)F [Compound I-278, (R)—N-(5-Methyl-2-((5-(trifluoromethyl)-2-((1-(vinylsulfonyl)piperidin-3-yl)amino)pyrimidin-4-yl)amino)phenyl)acrylamide]	F (provided a mass modification of 31-69%)	> 1000 nM
CC(C)=CC(=O)c1ccccc1Nc1nc(Nc2cc(C(N)=O)ccc2C)ncc1Cl [Compound I-216, 3-((5-chloro-4-((2-(3-methylbut-2-enoyl)phenyl)amino)pyrimidin-2-yl)amino)-4-methylbenzamide]	G (proived a mass modification ≦30%)	> 1000 nM
C=CC(=O)N[C@H]1CCCC[C@@H]1Nc1nc(Nc2cc(C(N)=O)ccc2C)ncc1Cl [Compound I-201, 3-((4-(((1S,2S)-2-acrylamidocyclohexyl)amino)-5-chloropyrimidin-2-yl)amino)-4-methylbenzamide]	G (proived a mass modification ≦30%)	> 1000 nM
C=CC(=O)Nc1ccccc1Nc1nc(N[C@H]2CCCN(S(C)(=O)=O)C2)ncc1Cl [Compound I-125, (S)—N-(2-((5-chloro-2-((1-(methylsulfonyl)piperidin-3-yl)amino)pyrimidin-4-yl)amino)phenyl)acrylamide]	E (provided a mass modification of ≧70%)	< 100 nM
C=CC(=O)Nc1ccccc1Nc1nc(Nc2ccc(N3CCNCC3)cc2OC(F)F)ncc1Cl [Compound I-142, N-(2-((5-chloro-2-((2-(difluoromethoxy)-4-(piperazin-1-yl)phenyl)amino)pyrimidin-4-yl)amino)phenyl)acrylamide]	E (provided a mass modification of ≧70%)	–
C=CC(=O)Nc1ccccc1Nc1nc(N[C@H]2CCCN(C(C)=O)C2)ncc1Cl [Compound I-115, (S)—N-(2-((2-((1-acetylpiperidin-3-yl)amino)-5-chloropyrimidin-4-yl)amino)phenyl) acrylamide]	E (provided a mass modification of ≧70%)	–
C=CC(=O)Nc1ccccc1Nc1nc(Nc2ccc(N3CCOCC3)cc2OC)ncc1N [Compound I-144, N-(2-((5-amino-2-((2-methoxy-4-morpholinophenyl)amino)pyrimidin-4-yl)amino)phenyl) acrylamide]	F (provided a mass modification of 31-69%)	–
C=CC(=O)Nc1ccccc1Nc1nc(Nc2cc(C(=O)O)ccc2C)ncc1C(F)(F)F [Compound I-78, 3-((4-((2-Acrylamidophenyl)amino)-5-(trifluoromethyl)pyrimidin-2-yl)amino)-4-methylbenzoic acid]	E (provided a mass modification of ≧70%)	–
